The source of these data is patent publication US20100035824A1, “Synergistic Pharmaceutical Composition” (priority 2005, published 2010).

The assay has as its system collagen-induced thrombocyte aggregation of human blood plasma which is rich of platelets. The assay is described as follows: Collagen-induced thrombocyte aggregation in platelet-rich human plasma (aggregometry).

Experimental: While the other conditions of the experiment remained the same as in Example 1, the collagen-induced thrombocyte aggregation was measured with different concentrations of genistein and glutamic acid dipeptide.

For the compound glutamic acid dipeptide, the thrombocyte aggregation result (glutamic acid dipeptide 100 μmolar, without genistein, control 65%) is listed as “about 60%”.
Consider `O=c1c(-c2ccc(O)cc2)coc2cc(O)cc(O)c12` [genistein, Genistein], for which the maximum thrombocyte aggregation (Example 3: 50 uM genistein, absence of glutamic acid dipeptide) stood at 25%; the maximum thrombocyte aggregation entry (Example 4: 50 uM genistein, 0 uM alanine dipeptide, control about 70%) was “about 60%”; the maximum thrombocyte aggregation result (genistein 100 uM, collagen-induced, control without genistein about 65%) is recorded as “about 35%”; the maximum thrombocyte aggregation entry (genistein 150 uM, collagen-induced, control about 65%) was “about 23%”; the maximum thrombocyte aggregation entry (genistein 200 uM, collagen-induced, control about 65%) is listed as “about 5%”.
